{
  "source": "patent US4186184A",
  "about": "“Selective administration of drug with ocular therapeutic system” (priority 1979, dated 1980)",
  "key": {"[1]": {"details": "in vivo", "procedure": "Ocular dispensing system of elliptical shape for administering a drug to the tissue compartments of the eye over a prolonged period of time and having a length of 4 to 20 millimeters, a width of 1 to 15 millimeters and a thickness of 0.1 to 4 millimeters are prepared by mixing liquid polydimethylsiloxane, chloramphenicol and stannous octate and curing the mixture at room temperature. The resulting matrix is placed in a pre-shaped and sized ethylene-vinyl acetate copolymer tube and the opened end adhesively sealed to provide a solid matrix containing drug. Then, 90% of the exposed surface of the copolymer is surrounded with cross-linked drug impermeable polyamide."}, "[2]": {"assay": "Drug release rate through system membranes (Example 8)", "assay_type": "physicochemical", "details": "area 1 cm^2, membranes 2 mils thick", "procedure": "Following the procedure set forth in Example 1, an ocular drug delivery system shaped like a circle 6 mm by 2.5 mm is prepared according to the described procedure except one of the membrane is formed from commercially available laminate of cellulose acetate and nylon-66 that is substantially impermeable to the passage of hydrocortisone alcohol in the reservoir of the system. The area of the system is 1 cm^2, and the membranes are 2 mils thick. The drug release rate for the ethylene-vinyl acetate copolymer film which is permeable to the steroid is about 40 micrograms per hour, and the release rate for the laminate cellulose acetate nylon is about 1 to 2 micrograms per hour."}, "[3]": {"assay": "Release of drug from osmotic ocular therapeutic system in simulated ocular aqueous environment (UV, 215 nm)", "assay_type": "physicochemical", "procedure": "A drug delivery system for the prolonged release of pilocarpine nitrate to the internal part of the eye is prepared and tested in the following manner: first, a reservoir formed of a drug and a polymer in intimate mixture is prepared according to the described procedure. A 7 gram portion of micronized pilocarpine nitrate is admixed with 3 grams of an ethylene-vinyl acetate copolymer having a vinyl acetate content of about 40% and having a melt index of […], as measured by ASTM D 1238-modified test. The copolymer has a tensile strength of about 600-700 psi and an elongation at break of 1400% to 1500%. It is impermeable to pilocarpine nitrate but permeable to water. […] The pilocarpine nitrate micronized particles are on average ~40 microns in diameter. The mixture is heated to 120° C. and cast as a 0.6 mm thick film. Next, a thin, water and drug impermeable thin film of butyl rubber is laminated to one side of the film thereby forming a system with a single drug portal. Finally, a number of 6 mm discs, suitable in size for insertion and retention in the eye, are cut from the 0.6 mm thick film. These discs have a portal with a surface area of […]. Osmotic bursting devices are the invention of Michaels and Gulloid as described in United States Patent Application Ser. No. 578,979 filed on May 19, 1975.\nThe release of drug from the ocular therapeutic system is determined by placing the systems in a simulated ocular aqueous environment. The outermost drug depots imbibs water through the sole exposed surface, swell, and burst their enclosing membranes, releasing their drug from the reservoir and exposing innermost depots. The amount of drug released in this rate controlled osmotic system is monitored by a UV spectrometer set at 215 nanometer wavelength. A relatively rapid release of pilocarpine nitrate begins to be noticed. The release continues for about 22 hours at a rate gradually decreasing from an initial 400 micrograms per hour to about 250 micrograms per hour after 22 hours. After 22 hours, the release rate falls rapidly."}, "[4]": {"details": "cited from earlier work"}, "[5]": {"details": "rabbit, in vivo"}, "[6]": {"design": "species or system New Zealand white rabbits", "details": "rabbit, in vivo", "procedure": "After the ocular systems were in the cul-de-sac 24 hours, they were removed, and a tear sample collected for measuring its pilocarpine content. Then, the systems were returned to the cul-de-sac for one-half hour, the rabbits sacrificed, and an aqueous humor sample immediately withdrawn for measuring the pilocarpine content thereof.\nThe sutures thus placed, restricted the movement of the ocular systems so that lateral and vertical movement of the ocular systems could not exceed a distance of more than 2 mm. Tear samples were collected and processed in the same way as were tear samples from ocular systems releasing 20 and 40 micrograms per hour.\nA second set of ocular systems were used in these experiments and they were manufactured with a size and shape that corresponded to the above ocular systems, except that these latter systems were unireleasing ocular systems. That is, the ocular systems released pilocarpine from a single portal. […] These systems were positioned in the cul-de-sac, with the portal oriented towards the sclera, and tears and aqueous humor samples were taken and analyzed for their pilocarpine content as described above. […]\nSelection of an ocular drug receptor site for administering a drug thereto can be easily ascertained by following the above procedures. […] For example, the physiological effect can be determined by measuring ocular pressure and increased vision. […]"}, "[7]": {"details": "Example 16, single portal osmotic system"}},
  "data": [
    {"smiles": "O=C(N[C@H](CO)[C@H](O)c1ccc([N+](=O)[O-])cc1)C(Cl)Cl", "note": "[chloramphenicol]", "values": [
      {"measurement": "Discomfort or irritation in the eye", "setting": "[1]", "result": "no discomfort or irritation"}
    ]},
    {"smiles": "C[C@]12CCC(=O)C=C1CC[C@@H]1[C@@H]2[C@@H](O)C[C@@]2(C)[C@H]1CC[C@]2(O)C(=O)CO", "note": "[hydrocortisone alcohol]", "values": [
      {"measurement": "Drug release rate for the ethylene-vinyl acetate copolymer film", "setting": "[2]", "result": "about 40 micrograms per hour"}
    ]},
    {"smiles": "CC[C@@H]1C(=O)OC[C@@H]1Cc1cncn1C", "note": "[pilocarpine nitrate]", "values": [
      {"measurement": "Duration of release", "setting": "[3]; Example 16, release rate falls rapidly thereafter", "result": "about 22 hours"},
      {"measurement": "Release rate after 22 hours", "setting": "[3]; [7]", "result": "about 250 micrograms per hour"},
      {"measurement": "Release rate, initial", "setting": "[3]; [7]", "result": 400, "unit": "micrograms per hour"},
      {"measurement": "Solubility in water", "setting": "[4]", "result": "about 25%"},
      {"measurement": "Aqueous concentrations of osmotic system compared with diffusional systems", "setting": "[5]", "result": "substantially similar"}
    ]},
    {"smiles": "CC[C@@H]1C(=O)OC[C@@H]1Cc1cncn1C", "note": "[pilocarpine]", "values": [
      {"measurement": "Absorption and transfer into aqueous humor from bulbar side relative to palpebral side", "setting": "[6]", "result": "at least 10 times"},
      {"measurement": "Aqueous humor pilocarpine concentration increase per 5 μg/hr increase in rate of release per portal", "setting": "[5]", "result": 0.4, "unit": "μg/ml per 5 μg/hr"},
      {"measurement": "Mean aqueous humor pilocarpine concentration with palpebral delivery relative to bulbar delivery", "setting": "[5]", "result": 11, "unit": "%"}
    ]}
  ]
}
